PubChem BioAssay (NCI)
“And” between values parts separate entries of the source, which are not always exact repeats. Identical values can stand only once.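 Growth conditions: 96-well plates. Treatment: test compound, 48 hours, 5 concentrations. Analysis: linear interpolation between bracketing concentrations; unreached endpoints set to highest concentration. The concentration for 50% growth inhibition is given as GI50. TGI marks complete inhibition of growth.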

Columns and labels:
Assay in all cases: growth of human tumour cells (NCI), 48 h
[1] = test system: IGROV1 ovarian
[2] = test system: NCI-H23 lung
[3] = test system: HS 578T breast
[4] = test system: MDA-MB-231 breast
[5] = test system: HOP-92 NSCLC
[6] = test system: UACC-62 melanoma
[7] = test system: OVCAR-8 ovarian
[8] = test system: OVCAR-5 ovarian
[9] = test system: HT29 colon
[10] = test system: CCRF-CEM leukemia

SMILES | GI50 [1] | TGI [1] | GI50 [2] | TGI [2] | GI50 [3] | TGI [3] [µM] | GI50 [4] | TGI [4] | GI50 [5] | TGI [5] | GI50 [6] | TGI [6] | GI50 [7] | TGI [7] | GI50 [8] | TGI [8] | GI50 [9] | TGI [9] | GI50 [10] | TGI [10]
N#CSc1c[nH]c2cccc(/C=C/C(=O)/C=C(O)/C=C/c3cccc4[nH]cc(SC#N)c34)c12 | 0.46 µM | 1.58 µM | 0.426 µM | 1.89 µM | 0.779 µM | 9.48 | 0.553 µM | 1.21 µM | 0.51 µM | 1.27 µM | 0.4 µM | 1.63 µM | 0.369 µM | > 17.5 µM | 0.714 µM | 2.04 µM | 0.496 µM | 2.05 µM | 0.159 µM | 6.47 µM
COC(=O)[C@@H](C)C[C@H](Cc1ccccc1)NC(=O)c1nc([C@@H](C[C@H](C(C)C)N(C)C(=O)[C@@H](NC(=O)[C@H]2CC(=O)CCN2C)C(C)C)OC(C)=O)sc1C(C)C | 0.111 µM | > 13.5 µM | 0.456 µM | > 16.7 µM | 0.16 µM | > 3.85 | 0.373 µM | 3.28 µM | 0.119 µM | > 16.7 µM | 0.0722 µM | > 16.7 µM | 0.48 µM | > 16.7 µM | 0.617 µM | > 16.7 µM | 0.146 µM | > 6.97 µM | 0.37 µM | > 16.7 µM
CC(=O)O[C@@H]1[C@H]2O[C@H]2[C@H]2O[C@@]2(COC(=O)c2ccccc2)[C@H]1OC(C)=O |  | > 100 µM |  | > 100 µM |  | > 100 |  | > 100 µM |  | > 100 µM |  | > 100 µM |  | > 100 µM |  | > 100 µM |  | > 100 µM |  | > 100 µM
Nc1nc(-c2ccccn2)c(-c2ccc3ncccc3n2)s1 | > 25 µM | > 25 µM | > 25 µM | > 25 µM | > 25 µM | > 25 | > 25 µM | > 25 µM | 13.3 µM | > 25 µM | > 25 µM | > 25 µM | > 25 µM | > 25 µM | > 25 µM | > 25 µM | > 25 µM | > 25 µM | > 25 µM | > 25 µM
c1c[nH]c(CN2CCN(Cc3ncc[nH]3)CC2)n1 |  | > 100 µM |  | > 100 µM |  | > 100 |  | > 100 µM |  | > 100 µM |  | > 100 µM |  | > 100 µM |  | > 100 µM |  | > 100 µM |  | > 100 µM
Nc1c2ccccc2nc2ccccc12 | 2.12 µM and 3.34 µM | 6.18 µM and 14 µM | 1.8 µM and 3.18 µM | 5.49 µM and 15.4 µM | 2.45 µM and 8.09 µM |  | 1.99 µM and 2.51 µM | 6.09 µM and 8.37 µM | 1.63 µM and 3.71 µM | 4.82 µM and 23.2 µM | 1.51 µM and 2.42 µM | 3.45 µM and 6.88 µM | 0.626 µM and 3.53 µM | 5.14 µM and 34.3 µM | 2.71 µM and 3.36 µM | 13.4 µM and 8.16 µM | 0.98 µM and 1.94 µM | 3.23 µM and 7.34 µM | 1.69 µM and 2.3 µM | 7.27 µM and 65.4 µM
OC1(c2ccccc2)c2ccccc2N(c2ccccc2)c2ccc(Cl)cc21 (centres undefined) | 0.341 µM | 1.15 µM | 0.32 µM | 1.38 µM | 0.332 µM | 1.81 | 0.231 µM | 0.626 µM | 0.214 µM | 0.703 µM | 0.195 µM | 0.452 µM | 0.287 µM | 1.25 µM | 0.457 µM | 1.28 µM | 0.283 µM | 0.918 µM | 0.382 µM | 13.7 µM
O=C(c1ccco1)c1c(C(F)(F)F)n([O-])c2cc(Cl)c(Cl)cc2[n+]1=O | 0.113 µM | 2.53 µM | 0.545 µM | 1.36 µM | 0.706 µM | 1.98 | 0.843 µM | 1.77 µM | 0.851 µM | 2.15 µM | 0.705 µM | 1.49 µM | 1.03 µM | 6.6 µM | 0.935 µM | 1.76 µM | 1.22 µM | 17.3 µM | 0.384 µM | 9.5 µM
O=c1[nH]c(-c2ccncc2)nc2sc3c(c12)CCCCCC3 | > 100 µM | > 100 µM | > 100 µM | > 100 µM | > 100 µM | > 100 | > 100 µM | > 100 µM | > 100 µM | > 100 µM | > 100 µM | > 100 µM | > 100 µM | > 100 µM | > 100 µM | > 100 µM | > 100 µM | > 100 µM | > 100 µM | > 100 µM
CCCCCCCCCCCCNC(=O)N[C@H](C(=O)N[C@H]1/C=C/OCCNC(=O)/C=C/[C@H](C(C)C)NC1=O)C(C)C | 2.12 µM | > 100 µM | 0.973 µM | > 100 µM | 3.22 µM | 38.1 | 11.7 µM | 49.3 µM | 5.14 µM | 58.7 µM | 3.1 µM | 39 µM | 13.7 µM | 34.1 µM | 6.82 µM | > 92.7 µM | 0.599 µM | 65.4 µM | 2.16 µM | > 100 µM
Fc1cnccc1-c1nc2ccc3[nH]ncc3c2c2c1CCCC2 | 0.688 µM | 11.2 µM | 2.22 µM | 59.9 µM | 0.661 µM | 6.7 | 2.3 µM | > 100 µM | 1.62 µM | 9.97 µM | 1.44 µM | 5.75 µM | 2.1 µM | > 100 µM | 3.16 µM | > 100 µM | 2.49 µM | > 100 µM | 1.84 µM | > 100 µM
CC(C)CC(=O)O[C@H]1C(=O)O[C@@H]2C[C@H]3[C@H](C)C(=O)C(O[C@@H]4O[C@H](CO)[C@@H](O)[C@H](O)[C@H]4O)=C[C@]3(C)[C@H]3[C@@H](O)[C@H](O)[C@]4(C(=O)O)OC[C@]32[C@@H]14 | 35.4 µM | > 100 µM |  | > 100 µM | 39.8 µM | > 100 | > 100 µM | > 100 µM | 37 µM | > 100 µM |  | > 100 µM | > 100 µM | > 100 µM |  | > 100 µM | 34 µM | > 100 µM | 24.7 µM | 83.6 µM
CCN(CC)c1ccc(C=C2C(=O)NC(=S)NC2=O)cc1 |  |  | 2.98 µM | 9.72 µM | 5.53 µM | > 100 | 3.49 µM | 10.6 µM | 2.6 µM | 7.78 µM | 2.26 µM | 6.72 µM | 3.83 µM | 13.4 µM | 11.9 µM | 26.5 µM | 1.86 µM | 3.64 µM | 2.12 µM | 6.89 µM
